One data set relates to wheat seeds. Description: Pre-sowing seed treatment, sowing qualities of wheat seeds. The data set is classed as in vivo. The note with it: for germination energy: control 82; for laboratory germination: control 85.7. How it is done:
(§1) When evaluating the effectiveness of treatment of wheat, alfalfa, barley, rice, and sorghum seeds as fungicidal and bactericidal agents with preparation compounds at concentrations of 10, 20, and 40 mmol, their effect on the suppression of seed infection was evaluated.
(§2) […] The sowing qualities were evaluated (germination energy for 3–4 days, laboratory germination for 7–8 days) according to GOST 12038-84 [60]. Sowing qualities of seeds were determined in wet chambers. According to the sample, 50 seeds were taken in 4-fold repetition.

In another data set the test system is rice seeds. Description: Pre-sowing seed treatment, sowing qualities of rice seeds. The data set is classed as in vivo. The note with it: for germination energy: control 71.4; for laboratory germination: control 95.2. As to the method: as §1, §2
The subject of another data set is alfalfa seeds. Description: Pre-sowing seed treatment, sowing qualities of alfalfa seeds. The data set is classed as in vivo. Conditions: for germination energy / laboratory germination: control 76. As to the method: as §1, §2
Data set [1] deals with fungal microflora (mushrooms) on alfalfa seeds. Description: Growth of fungal microflora on treated alfalfa seeds. The data set is classed as cell-based. How it is done:
During phytopathological analyses of agricultural crops, the species composition of fungal and bacterial microflora was established. Laboratory studies were carried out on two nutrient media potato-agar (ingredients: potatoes—200 g; agar-agar—20 g; distilled water—1000 mL.) and potato-dextrose agar (ingredients: potatoes—200 g;dextrose—20 g; agar-agar—20 g; distilled water—1000 mL), according to the guidelines.
When evaluating the effectiveness of treatment of wheat, alfalfa, barley, rice, and sorghum seeds as […], their effect on the suppression of seed infection was evaluated.

The subject of another data set is barley seeds. Description: Pre-sowing seed treatment, sowing qualities of barley seeds. Conditions: for germination energy / laboratory germination: control 95.2. The data set is classed as in vivo. As to the method: as §1, §2
The subject of another data set is sorghum seeds. Description: Pre-sowing seed treatment, sowing qualities of sorghum seeds. The data set is classed as in vivo. Conditions: for germination energy: control 52.3; for laboratory germination: control 57. As to the method: as §1, §2
For a further data set, the system named is SH-SY5Y (neuroblastoma). Description: Cell viability, MTT test. The data set is classed as cell-based, Human. Conditions: Homo sapiens, SH-SY5Y, test range 0.1 to 100 μM, read-out: IC50 (concentration causing 50% inhibition of cell population growth). How it is done: (§3) In this work, the cytotoxic potential of the water-soluble salts based on benzofuroxan was determined by the effect of compounds on the survival of the cell tumor origin cultures (SH-SY5Y, Hep2, A549, HeLa) using the MTT test. To understand how the synthesized compounds can influence the healthy microenvironment in the body, the effect of substances on the viability of a normal Hek 293 cell culture was additionally evaluated.
(§4) Human cell cultures of tumor origin—SH-SY5Y (neuroblastoma), HeLa (cervical tumor), Hep-2 (larynx carcinoma), A549 (adenocarcinomic human alveolar basal epithelial cells)—and normal cell line Hek 293 (human embryonic kidneys), provided by the Laboratory of Tumor Cell Genetics of the Scientific Research Institute of Carcinogenesis, N.N. Blokhin National Medical Research Center of Oncology, as well as the Institute of Cytology of the Russian Academy of Sciences, were grown in a nutrient medium DMEM (PanEco, Moscow, Russia) and MEM (PanEco, Moscow, Russia), containing fetal bovine serum (10% by volume) (ThermoFisher Scientific, Paisley, UK), Glutamax (2 mM) (Gibco, Scotland, UK), and penicillin-streptomycin (1% by volume) (PanEco, Moscow, Russia). The cultivation was carried out at 37 °C in a humidified CO2 atmosphere (5%).
(§5) Cell viability was determined by MTT test. Cells were seeded in a 96-well plate in the amount of 1 × 10^4 cells/200µLof complete nutrient medium and cultured at 37 °C in CO2 (5%). After 24 h of incubation, various concentrations of test compounds in the range from 0.1 to 100 μM, were added to the cell cultures, and then the cells were cultured under the same conditions for 24 and 72 h. For each concentration, the experiment was carried out in triplicate.
(§6) All compounds were dissolved in DMSO, then diluted with the medium to the required concentration. […] The DMSO was also added to the control wells in a volume of 1%. After the incubation time, MTT (3-(4,5-dimethylthiazol-2-yl)-2,5-diphenyltetrazolium bromide, 5 mg/mL) was added to each well and plates were additionally incubated for 2 h (until the characteristic color appeared).
(§7) Using a plate analyzer (Cytation3, BioTech Instruments Inc., Winooski, VT, USA), the optical density was determined at 530 nm. The concentration value causing 50% inhibition of cell population growth (IC50) was determined from dose-dependent curves.
(In general: Tetrazolium dyes change colour on reduction, which living cells bring about.)

The next data set deals with HeLa (cervical tumor). Description: Cell viability, MTT test. The data set is classed as cell-based. The note with it: Homo sapiens, test range 0.1 to 100 μM, read-out: IC50 (concentration causing 50% inhibition of cell population growth). As to the method: as §3, §4, §5, §6, §7
Data set [2] has as its system A549 (adenocarcinomic human alveolar basal epithelial cells). Description: Cell viability, MTT test. The note with it: test range 0.1 to 100 μM, read-out: IC50 (concentration causing 50% inhibition of cell population growth). The data set is classed as cell-based. How it is done: as §3, §4, §5, §6, §7
The subject of another data set is Hep-2 (larynx carcinoma). Description: Cell viability, MTT test. The data set is classed as cell-based. Conditions: Homo sapiens, HEp-2, test range 0.1 to 100 μM, read-out: IC50 (concentration causing 50% inhibition of cell population growth). As to the method: as §3, §4, §5, §6, §7
Data set [3] deals with Hek 293 (human embryonic kidneys). Description: Cell viability, MTT test, normal cell line. Conditions: HEK293, Hek 293 normal cells, test range 0.1 to 100 μM, read-out: IC50 (concentration causing 50% inhibition of cell population growth). The data set is classed as cell-based. As to the method:
as §3, §4, §5, §6, §7

Structures can show the parent of a compound that is named as a salt. Where two headings read alike, the source gives them in different places.

This is an account of results in paper PMC9739695, “Water-Soluble Salts Based on Benzofuroxan Derivatives—Synthesis and Biological Activity” (International Journal of Molecular Sciences, 2022).

As for `Cl.O=[N+]([O-])c1c(Cl)cc2c(no[n+]2[O-])c1NCCN1CCCCC1`, the melting point – broadly, the temperature of the solid-liquid transition – was 106 to 107 °C.
Same read-out and setting: the same measure for `O=[N+]([O-])c1c(Cl)cc2c(no[n+]2[O-])c1NCCN1CCOCC1` (as salt: chloride) [4d, 6-chloro-4-(2-(morpholino-4-ium)ethylamino)-5-nitrobenzo[c][1,2,5]oxadiazole 1-oxide chloride]: 186 to 187 °C.
Same read-out and setting: in the case of `CN(C)Cc1ccccc1Nc1c([N+](=O)[O-])c(Cl)cc2c1no[n+]2[O-]` [3a, 6-chloro-4-(2-((dimethylamino)methyl)phenylamino)-5-nitrobenzo[c][1,2,5]oxadiazole 1-oxide] it was 152 to 153 °C (dec.).
The same measure, in the same setting: the same measure for `CN(C)Cc1cccc(Nc2c([N+](=O)[O-])c(Cl)cc3c2no[n+]3[O-])c1` [3b, 6-chloro-4-(3-((dimethylamino)methyl)phenylamino)-5-nitrobenzo[c][1,2,5]oxadiazole 1-oxide]: 118 to 119 °C; for `CN(C)Cc1ccc(Nc2c([N+](=O)[O-])c(Cl)cc3c2no[n+]3[O-])cc1` [3c, 6-chloro-4-(4-((dimethylamino)methyl)phenylamino)-5-nitrobenzo[c][1,2,5]oxadiazole 1-oxide]: > 300 °C (dec.); for `O=[N+]([O-])c1c(Cl)cc2c(no[n+]2[O-])c1NCCN1CCOCC1` [3d, 6-chloro-4-(2-morpholinoethylamino)-5-nitrobenzo[c][1,2,5]oxadiazole 1-oxide]: 140 to 141 °C.
Turning to `O=[N+]([O-])c1c(Cl)cc2c(no[n+]2[O-])c1NCCN1CCCCC1` [3f, 6-chloro-5-nitro-4-(2-(piperidin-1-yl)ethylamino)benzo[c][1,2,5]oxadiazole 1-oxide], the melting point is 88 to 89 °C.
Take `CN(C)Cc1ccccc1Nc1c([N+](=O)[O-])c(Cl)cc2c1no[n+]2[O-].Cl` [4a, 6-chloro-4-(2-((dimethylammonio)methyl)phenylamino)-5-nitrobenzo[c][1,2,5]oxadiazole 1-oxide chloride]: the melting point was 125 to 126 °C (dec.). In the data set on wheat seeds (10 mmol), the “sowing qualities of seeds compared with control” value is given as “higher than in the case of controls”, the germination energy is reported as 97% and the laboratory germination came out at 96.5%. Also, in the data set on wheat seeds (50 mmol), the “sowing qualities of seeds compared with control” value is listed as “higher than in the case of controls”, the germination energy is 95% and the laboratory germination amounted to 96.5%. Also, in the data set with rice seeds (10 mmol), the “sowing qualities of seeds compared with control” value is recorded as “better results than the control”, the germination energy came to 96% and the laboratory germination was found to be 96.5%. Also, in the data set on rice seeds (50 mmol), the “sowing qualities of seeds compared with control” value is recorded as “better results than the control”, the germination energy is on record as 99% and the laboratory germination amounted to 99%. For the same molecule, in the data set on alfalfa seeds (10 mmol), the “sowing qualities of seeds compared with control” value is given as “higher than controls”, the germination energy is reported as 83% and the laboratory germination is 84.5%. Further, in the data set with alfalfa seeds (50 mmol), the “sowing qualities of seeds compared with control” value is given as “higher than controls”, the germination energy is 78% and the laboratory germination was determined as 79.5%. In addition, the “effect on fungal microflora” value in data set [1] (10 mmol) is given as “positive effect on the suppression of fungal microflora”. In data set [1] (50 mmol), the “effect on fungal microflora” value is “positive effect on the suppression of fungal microflora”. In the data set on barley seeds (10 mmol), the “sowing qualities of seeds compared with control” value is reported as “higher than control”, the germination energy is recorded as 96% and the laboratory germination is recorded as 99%. Further, in the data set on barley seeds (50 mmol), the “sowing qualities of seeds compared with control” value is “higher than control”, the germination energy is recorded as 95% and the laboratory germination is 97.5%. In the data set on sorghum seeds (10 mmol), this molecule had a germination energy of 47.5% and a laboratory germination of 49.5%. Moreover, in the data set on sorghum seeds (50 mmol), the “sowing qualities of seeds compared with control” value was “at the control level”, the germination energy was 52.5% and the laboratory germination amounted to 56.5%. Also, the IC50 in the data set on SH-SY5Y (neuroblastoma) (incubation 24 h) is 44 ± 1.09 µM. For the same molecule, the IC50 in the data set with SH-SY5Y (neuroblastoma) (incubation 72 h) came out at 35.1 ± 3.85 µM. In addition, the IC50 in the data set with HeLa (cervical tumor) (incubation 24 h) amounted to 40.2 ± 2.73 µM. Also, the IC50 in the data set with HeLa (cervical tumor) (incubation 72 h) stood at 32.9 ± 0.56 µM. The IC50 in data set [2] (A549, incubation 24 h) amounted to 95.5 ± 1.01 µM. Also, in [2] (A549, incubation 72 h), the IC50 came to 92.1 ± 3.58 µM. The IC50 with Hep-2 (larynx carcinoma) (Hep2, incubation 24 h) was 98.5 ± 2.54 µM. The IC50 with Hep-2 (larynx carcinoma) (Hep2, incubation 72 h) worked out at 90.1 ± 3.1 µM. For the same molecule, the IC50 in data set [3] (incubation 24 h) was 38.62 ± 0.1 µM. In data set [3] (incubation 72 h), the IC50 is 16.1 ± 1.86 µM.
Take `CN(C)Cc1cccc(Nc2c([N+](=O)[O-])c(Cl)cc3c2no[n+]3[O-])c1` [4b, 6-chloro-4-(3-((dimethylammonio)methyl)phenylamino)-5-nitrobenzo[c][1,2,5]oxadiazole 1-oxide chloride]: the IC50 came to 45.2 ± 2.43 µM in the data set on SH-SY5Y (neuroblastoma) (incubation 24 h); 32.1 ± 1.41 µM with SH-SY5Y (neuroblastoma) (incubation 72 h); 46.1 ± 0.56 µM in the data set with HeLa (cervical tumor) (incubation 24 h); 38.1 ± 1.21 µM with HeLa (cervical tumor) (incubation 72 h); 99.2 ± 3.38 µM in data set [2] (A549, incubation 24 h); 90 ± 2.04 µM in [2] (A549, incubation 72 h). For the same molecule, the IC50 in the data set with Hep-2 (larynx carcinoma) (Hep2, incubation 24 h) amounted to 97 ± 2.08 µM; in the data set with Hep-2 (larynx carcinoma) (Hep2, incubation 72 h), 93.1 ± 2.3 µM; in data set [3] (incubation 24 h) it was 35 ± 1.35 µM; in data set [3] (incubation 72 h), 27.2 ± 2.5 µM.
